Data as given in PMC6308032 (Molecular Metabolism, 2018).

Key:
[1] = Clinical pharmacokinetics, SAD part; assay type: in vivo; details: human; for AUC(0-inf) / CL/F / Cmax / Tmax / Vd/F / half-life: plasma, sc
[2] = Clinical pharmacokinetics, MAD part; assay type: in vivo; details: human, SC once weekly
[3] = tested on: patients with T2DM; assay: Adverse events, Phase 1b POC part; assay type: in vivo, human; details: for Any TEAE: T2DM patients
[4] = tested on: healthy subjects and patients with T2DM; assay: Other safety laboratory parameters; assay type: in vivo, human
[5] = Immunogenicity, anti-drug antibody; assay type: in vivo, human; details: whole study
[6] = tested on: healthy subjects and patients with T2DM; assay: ECG analysis; assay type: in vivo, human
[7] = tested on: healthy subjects; assay: Pharmacodynamics; assay type: in vivo, human; details: MAD, dulaglutide 1.5 mg/wk, LSM

With `CC[C@H](C)[C@H](NC(=O)[C@H](CC(C)C)NC(=O)[C@H](Cc1c[nH]c2ccccc12)NC(=O)[C@H](CCC(N)=O)NC(=O)[C@@H](NC(=O)[C@H](Cc1ccccc1)NC(=O)[C@H](C)NC(=O)[C@H](CCCCNC(=O)COCCOCCNC(=O)COCCOCCNC(=O)CC[C@H](NC(=O)CCCCCCCCCCCCCCCCCCC(=O)O)C(=O)O)NC(=O)[C@H](CCC(N)=O)NC(=O)[C@H](C)NC(=O)[C@@H](NC(=O)[C@H](CCCCN)NC(=O)[C@H](CC(=O)O)NC(=O)[C@H](CC(C)C)NC(=O)C(C)(C)NC(=O)[C@@H](NC(=O)[C@H](CO)NC(=O)[C@H](Cc1ccc(O)cc1)NC(=O)[C@H](CC(=O)O)NC(=O)[C@H](CO)NC(=O)[C@@H](NC(=O)[C@H](Cc1ccccc1)NC(=O)[C@@H](NC(=O)CNC(=O)[C@H](CCC(=O)O)NC(=O)C(C)(C)NC(=O)[C@@H](N)Cc1ccc(O)cc1)[C@@H](C)O)[C@@H](C)O)[C@@H](C)CC)[C@@H](C)CC)C(C)C)C(=O)N[C@@H](C)C(=O)NCC(=O)NCC(=O)N1CCC[C@H]1C(=O)N[C@@H](CO)C(=O)N[C@@H](CO)C(=O)NCC(=O)N[C@@H](C)C(=O)N1CCC[C@H]1C(=O)N1CCC[C@H]1C(=O)N1CCC[C@H]1C(=O)N[C@@H](CO)C(N)=O` [LY3298176] the “time of maximum concentration after dosing” value ([1]; SC, over the doses studied) was 24 to 48 h, the AUC(0-inf) ([1]; 0.25 mg) was 5760 ng·h/mL and the CL/F ([1]; 0.25 mg) was 0.723 mL/min. It also gave a Cmax ([1]; 0.25 mg) of 26 ng/mL, a Tmax ([1]; 0.25 mg) of 48 h and a Vd/F ([1]; 0.25 mg) of 7.26 L. It also gave a half-life ([1]; 0.25 mg) of 116 h, an AUC(0-inf) ([1]; 0.5 mg) of 12000 ng·h/mL and a CL/F ([1]; 0.5 mg) of 0.693 mL/min. The Cmax ([1]; 0.5 mg) was 57.7 ng/mL, the Tmax ([1]; 0.5 mg) was 48 h and the Vd/F ([1]; 0.5 mg) was 7.46 L. For the same compound, the half-life ([1]; 0.5 mg) was 124 h, the AUC(0-inf) ([1]; 1 mg) was 22600 ng·h/mL and the CL/F ([1]; 1 mg) was 0.738 mL/min. It also gave a Cmax ([1]; 1 mg) of 108 ng/mL, a Tmax ([1]; 1 mg) of 24 h and a Vd/F ([1]; 1 mg) of 6.76 L. For the same compound, the AUC(0-inf) ([1]; 2.5 mg) was 53200 ng·h/mL, the CL/F ([1]; 2.5 mg) was 0.783 mL/min and the Cmax ([1]; 2.5 mg) was 231 ng/mL. For the same compound, the Tmax ([1]; 2.5 mg) was 24 h, the Vd/F ([1]; 2.5 mg) was 8.15 L and the AUC(0-inf) ([1]; 5 mg) was 90500 ng·h/mL. It also gave a CL/F ([1]; 5 mg) of 0.922 mL/min, a Cmax ([1]; 5 mg) of 397 ng/mL and a Tmax ([1]; 5 mg) of 24 h. For the same compound, the Vd/F ([1]; 5 mg) was 9.8 L, the AUC(0-inf) ([1]; 8 mg) was 169000 ng·h/mL and the CL/F ([1]; 8 mg) was 0.787 mL/min. It also gave a Cmax ([1]; 8 mg) of 874 ng/mL, a Tmax ([1]; 8 mg) of 48 h and a Vd/F ([1]; 8 mg) of 7.55 L. The half-life ([1]; mean half-life) was about 120 h, the “average accumulation following four weekly doses” value [2] was 1.58 and the “mean steady-state volume of distribution” value [2] was 9.5 L. For the same compound, the Abdominal distension ([3]; 0.5 mg, N=9) was 0 (0.0) n (%), the Abdominal pain ([3]; 0.5 mg, N=9) was 0 (0.0) n (%) and the Acute pancreatitis ([3]; 0.5 mg, N=9) was 0 (0.0) n (%). For the same compound, the Decreased appetite ([3]; 0.5 mg, N=9) was 2 (22.2) n (%), the Dermatitis allergic ([3]; 0.5 mg, N=9) was 0 (0.0) n (%) and the Diarrhoea ([3]; 0.5 mg, N=9) was 1 (11.1) n (%). For the same compound, the Dyspepsia ([3]; 0.5 mg, N=9) was 0 (0.0) n (%), the Eructation ([3]; 0.5 mg, N=9) was 0 (0.0) n (%) and the Gastrooesophageal reflux disease ([3]; 0.5 mg, N=9) was 0 (0.0) n (%). For the same compound, the Headache ([3]; 0.5 mg, N=9) was 1 (11.1) n (%), the Hepatic enzyme increased ([3]; 0.5 mg, N=9) was 0 (0.0) n (%) and the Injection site reaction ([3]; 0.5 mg, N=9) was 0 (0.0) n (%). The Nausea ([3]; 0.5 mg, N=9) was 1 (11.1) n (%), the Pancreatic enzyme increased ([3]; 0.5 mg, N=9) was 0 (0.0) n (%) and the Serious adverse events ([3]; 0.5 mg, N=9) was 0 (0.0) n (%). The Severe hypoglycaemia ([3]; 0.5 mg, N=9) was 0 (0.0) n (%), the “Study discontinuation due to adverse events” value (“Study discontinuation due” below) ([3]; 0.5 mg, N=9) was 0 (0.0) n (%) and the “TEAE Mild, events” value ([3]; 0.5 mg, N=9) was 15 events. For the same compound, the “TEAE Moderate, events” value ([3]; 0.5 mg, N=9) was 0 events, the “TEAE Severe, events” value ([3]; 0.5 mg, N=9) was 0 events and the “Total hypoglycaemia (≤70 mg/dL)” value ([3]; 0.5 mg, N=9) was 0 (0.0) n (%). The Vomiting ([3]; 0.5 mg, N=9) was 1 (11.1) n (%), the “Weight decrease (TEAE)” value ([3]; 0.5 mg, N=9) was 0 (0.0) n (%) and the Abdominal distension ([3]; 5 mg, N=9) was 1 (11.1) n (%). For the same compound, the Abdominal pain ([3]; 5 mg, N=9) was 0 (0.0) n (%), the Acute pancreatitis ([3]; 5 mg, N=9) was 0 (0.0) n (%) and the Decreased appetite ([3]; 5 mg, N=9) was 6 (66.7) n (%). For the same compound, the Dermatitis allergic ([3]; 5 mg, N=9) was 0 (0.0) n (%), the Diarrhoea ([3]; 5 mg, N=9) was 1 (11.1) n (%) and the Dyspepsia ([3]; 5 mg, N=9) was 0 (0.0) n (%). For the same compound, the Eructation ([3]; 5 mg, N=9) was 0 (0.0) n (%), the Gastrooesophageal reflux disease ([3]; 5 mg, N=9) was 1 (11.1) n (%) and the Headache ([3]; 5 mg, N=9) was 0 (0.0) n (%). The Hepatic enzyme increased ([3]; 5 mg, N=9) was 0 (0.0) n (%), the Injection site reaction ([3]; 5 mg, N=9) was 0 (0.0) n (%) and the Nausea ([3]; 5 mg, N=9) was 1 (11.1) n (%). For the same compound, the Pancreatic enzyme increased ([3]; 5 mg, N=9) was 0 (0.0) n (%), the Serious adverse events ([3]; 5 mg, N=9) was 0 (0.0) n (%) and the Severe hypoglycaemia ([3]; 5 mg, N=9) was 0 (0.0) n (%). The “Study discontinuation due” value ([3]; 5 mg, N=9) was 3 (33.3) n (%), the “TEAE Mild, events” value ([3]; 5 mg, N=9) was 17 events and the “TEAE Moderate, events” value ([3]; 5 mg, N=9) was 0 events. For the same compound, the “TEAE Severe, events” value ([3]; 5 mg, N=9) was 0 events, the “Total hypoglycaemia (≤70 mg/dL)” value ([3]; 5 mg, N=9) was 0 (0.0) n (%) and the Vomiting ([3]; 5 mg, N=9) was 0 (0.0) n (%). For the same compound, the “Weight decrease (TEAE)” value ([3]; 5 mg, N=9) was 0 (0.0) n (%), the Abdominal distension ([3]; 5/5/10/10 mg, N=12) was 2 (16.7) n (%) and the Abdominal pain ([3]; 5/5/10/10 mg, N=12) was 0 (0.0) n (%). For the same compound, the Acute pancreatitis ([3]; 5/5/10/10 mg, N=12) was 0 (0.0) n (%), the Decreased appetite ([3]; 5/5/10/10 mg, N=12) was 5 (41.7) n (%) and the Dermatitis allergic ([3]; 5/5/10/10 mg, N=12) was 0 (0.0) n (%). For the same compound, the Diarrhoea ([3]; 5/5/10/10 mg, N=12) was 3 (25.0) n (%), the Dyspepsia ([3]; 5/5/10/10 mg, N=12) was 3 (25.0) n (%) and the Eructation ([3]; 5/5/10/10 mg, N=12) was 1 (8.3) n (%). The Gastrooesophageal reflux disease ([3]; 5/5/10/10 mg, N=12) was 1 (8.3) n (%), the Headache ([3]; 5/5/10/10 mg, N=12) was 0 (0.0) n (%) and the Hepatic enzyme increased ([3]; 5/5/10/10 mg, N=12) was 1 (8.3) n (%). The Injection site reaction ([3]; 5/5/10/10 mg, N=12) was 0 (0.0) n (%), the Nausea ([3]; 5/5/10/10 mg, N=12) was 1 (8.3) n (%) and the Pancreatic enzyme increased ([3]; 5/5/10/10 mg, N=12) was 0 (0.0) n (%). The Serious adverse events ([3]; 5/5/10/10 mg, N=12) was 0 (0.0) n (%), the Severe hypoglycaemia ([3]; 5/5/10/10 mg, N=12) was 0 (0.0) n (%) and the “Study discontinuation due” value ([3]; 5/5/10/10 mg, N=12) was 0 (0.0) n (%). The “TEAE Mild, events” value ([3]; 5/5/10/10 mg, N=12) was 54 events, the “TEAE Moderate, events” value ([3]; 5/5/10/10 mg, N=12) was 1 events and the “TEAE Severe, events” value ([3]; 5/5/10/10 mg, N=12) was 0 events. The “Total hypoglycaemia (≤70 mg/dL)” value ([3]; 5/5/10/10 mg, N=12) was 2 (16.7) n (%), the Vomiting ([3]; 5/5/10/10 mg, N=12) was 1 (8.3) n (%) and the “Weight decrease (TEAE)” value ([3]; 5/5/10/10 mg, N=12) was 2 (16.7) n (%). For the same compound, the Abdominal distension ([3]; 5/5/10/15 mg, N=12) was 7 (58.3) n (%), the Abdominal pain ([3]; 5/5/10/15 mg, N=12) was 2 (16.7) n (%) and the Acute pancreatitis ([3]; 5/5/10/15 mg, N=12) was 0 (0.0) n (%). The Decreased appetite ([3]; 5/5/10/15 mg, N=12) was 11 (91.7) n (%), the Dermatitis allergic ([3]; 5/5/10/15 mg, N=12) was 2 (16.7) n (%) and the Diarrhoea ([3]; 5/5/10/15 mg, N=12) was 5 (41.7) n (%). For the same compound, the Dyspepsia ([3]; 5/5/10/15 mg, N=12) was 0 (0.0) n (%), the Eructation ([3]; 5/5/10/15 mg, N=12) was 4 (33.3) n (%) and the Gastrooesophageal reflux disease ([3]; 5/5/10/15 mg, N=12) was 5 (41.7) n (%). For the same compound, the Headache ([3]; 5/5/10/15 mg, N=12) was 2 (16.7) n (%), the Hepatic enzyme increased ([3]; 5/5/10/15 mg, N=12) was 1 (8.3) n (%) and the Injection site reaction ([3]; 5/5/10/15 mg, N=12) was 0 (0.0) n (%). The Nausea ([3]; 5/5/10/15 mg, N=12) was 6 (50.0) n (%), the Pancreatic enzyme increased ([3]; 5/5/10/15 mg, N=12) was 1 (8.3) n (%) and the Serious adverse events ([3]; 5/5/10/15 mg, N=12) was 0 (0.0) n (%). For the same compound, the Severe hypoglycaemia ([3]; 5/5/10/15 mg, N=12) was 0 (0.0) n (%), the “Study discontinuation due” value ([3]; 5/5/10/15 mg, N=12) was 0 (0.0) n (%) and the “TEAE Mild, events” value ([3]; 5/5/10/15 mg, N=12) was 87 events. For the same compound, the “TEAE Moderate, events” value ([3]; 5/5/10/15 mg, N=12) was 9 events, the “TEAE Severe, events” value ([3]; 5/5/10/15 mg, N=12) was 0 events and the “Total hypoglycaemia (≤70 mg/dL)” value ([3]; 5/5/10/15 mg, N=12) was 1 (8.3) n (%). For the same compound, the Vomiting ([3]; 5/5/10/15 mg, N=12) was 9 (75.0) n (%), the “Weight decrease (TEAE)” value ([3]; 5/5/10/15 mg, N=12) was 2 (16.7) n (%) and the “Any TEAE” value ([3]; 0.5 mg QW x4 SC, N=9) was 5 (55.6) n (%). For the same compound, the “Any TEAE” value ([3]; 5 mg QW x4 SC, N=9) was 7 (77.8) n (%), the “Any TEAE” value ([3]; 5/5/10/10 mg QW SC, N=12) was 10 (83.3) n (%) and the “Any TEAE” value ([3]; 5/5/10/15 mg QW SC, N=12) was 11 (91.7) n (%). The “lipase and amylase, mean values compared to baseline” value [4] was “Increases from baseline in mean values of lipase and amylase within the normal range”, the “subjects who developed treatment-emergent or treatment-boosted ADAs” value [5] was “Four” and the “drug-related QT prolongation” value [6] was “no signal of drug-related QT prolongation”.

In the case of “Dulaglutide: selective GLP-1 receptor agonist, positive control, 1.5 mg/0.5 mL single-use pen”, the “Body Weight Change from Baseline, Day 29” value [7] is reported as -1.3 kg.
